# Molecular target: Sodium channel protein type 9 subunit alpha (Homo sapiens, UniProt Q15858)
# Assay: In Vitro Assay: 293 cells stably transfected with either Nav 1.7 or with Nav 1.5 were recorded in population patch-clamp mode with the IonWorks® Quattro automated electrophysiology system in accordance with the manufacturer's specifications (Molecular Devices, LLC, Sunnyvale, Calif.). Sodium channel currents were measured in response to a train of depolarizations that induced successively greater inactivation.Cells were held at −110 mV for three seconds (Nav 1.7) or half a second (Nav 1.5) from a holding voltage of −15 mV, then put through a series of 26 pulses of 150 msec duration to −20 mV at a frequency of 5 Hz. Cells were then left unclamped for a period of 3 to 8 minutes while a single concentration of test compound was added. Cells were then reclamped and put through the same voltage protocol. Current at the end of the 26th pulse to −20 mV was subtracted from the peak current evoked by the 26th pulse to −20 mV to correct for leak current.
# Format: cell-based
# Sodium channel protein type 9 subunit alpha, sequence (Q15858 whole entry): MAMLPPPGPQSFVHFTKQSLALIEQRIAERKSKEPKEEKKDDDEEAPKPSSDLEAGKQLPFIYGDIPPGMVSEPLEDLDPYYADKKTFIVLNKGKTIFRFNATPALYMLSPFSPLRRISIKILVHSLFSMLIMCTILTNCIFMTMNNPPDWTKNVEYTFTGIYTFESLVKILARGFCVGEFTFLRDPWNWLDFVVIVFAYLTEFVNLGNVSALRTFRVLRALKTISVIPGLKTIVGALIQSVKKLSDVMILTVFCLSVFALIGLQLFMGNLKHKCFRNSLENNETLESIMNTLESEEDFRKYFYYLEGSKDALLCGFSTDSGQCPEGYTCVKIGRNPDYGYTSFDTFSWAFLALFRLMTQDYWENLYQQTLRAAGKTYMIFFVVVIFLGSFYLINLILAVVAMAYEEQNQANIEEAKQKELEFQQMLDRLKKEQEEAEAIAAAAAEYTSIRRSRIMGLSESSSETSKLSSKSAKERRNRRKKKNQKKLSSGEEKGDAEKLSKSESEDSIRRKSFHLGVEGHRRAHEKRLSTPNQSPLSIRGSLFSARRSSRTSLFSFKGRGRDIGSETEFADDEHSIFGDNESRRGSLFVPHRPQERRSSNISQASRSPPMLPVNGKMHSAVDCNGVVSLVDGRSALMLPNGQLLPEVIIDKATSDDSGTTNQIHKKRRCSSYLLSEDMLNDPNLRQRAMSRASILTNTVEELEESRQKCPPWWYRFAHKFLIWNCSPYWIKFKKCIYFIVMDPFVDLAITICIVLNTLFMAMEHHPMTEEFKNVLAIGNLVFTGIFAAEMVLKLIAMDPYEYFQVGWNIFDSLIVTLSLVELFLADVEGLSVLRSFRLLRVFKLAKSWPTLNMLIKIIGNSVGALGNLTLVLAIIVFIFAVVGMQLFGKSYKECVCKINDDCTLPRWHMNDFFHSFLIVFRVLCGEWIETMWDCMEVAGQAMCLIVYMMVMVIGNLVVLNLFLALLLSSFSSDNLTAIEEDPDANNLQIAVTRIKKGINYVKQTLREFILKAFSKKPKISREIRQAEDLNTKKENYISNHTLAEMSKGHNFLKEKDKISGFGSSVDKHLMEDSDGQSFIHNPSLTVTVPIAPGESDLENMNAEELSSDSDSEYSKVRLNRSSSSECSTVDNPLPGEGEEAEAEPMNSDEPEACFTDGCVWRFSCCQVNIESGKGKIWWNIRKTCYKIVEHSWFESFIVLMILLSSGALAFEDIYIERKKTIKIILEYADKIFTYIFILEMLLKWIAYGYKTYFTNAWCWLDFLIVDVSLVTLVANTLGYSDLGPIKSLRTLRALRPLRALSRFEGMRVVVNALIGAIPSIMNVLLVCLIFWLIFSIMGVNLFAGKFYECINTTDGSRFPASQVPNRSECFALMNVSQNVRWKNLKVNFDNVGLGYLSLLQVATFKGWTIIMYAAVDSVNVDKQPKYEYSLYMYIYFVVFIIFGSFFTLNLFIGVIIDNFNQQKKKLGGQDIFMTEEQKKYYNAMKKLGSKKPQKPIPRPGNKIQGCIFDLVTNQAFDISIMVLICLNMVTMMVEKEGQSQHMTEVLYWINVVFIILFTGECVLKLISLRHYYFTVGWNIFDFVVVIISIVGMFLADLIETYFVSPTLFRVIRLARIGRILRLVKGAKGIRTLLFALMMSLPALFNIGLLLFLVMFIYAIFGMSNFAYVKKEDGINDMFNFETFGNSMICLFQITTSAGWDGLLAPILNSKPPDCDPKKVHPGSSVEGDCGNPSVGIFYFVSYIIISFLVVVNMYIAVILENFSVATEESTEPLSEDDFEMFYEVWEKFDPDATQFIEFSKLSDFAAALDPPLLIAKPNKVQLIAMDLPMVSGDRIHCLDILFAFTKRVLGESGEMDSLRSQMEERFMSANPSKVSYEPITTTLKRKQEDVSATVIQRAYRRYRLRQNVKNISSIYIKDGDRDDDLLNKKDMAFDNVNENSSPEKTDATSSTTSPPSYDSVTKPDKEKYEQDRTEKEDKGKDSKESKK
row,Compound,IC50 [nM]
1,Cn1cc(-c2cccc3ccccc23)c2ccc(S(=O)(=O)Nc3ncns3)cc21,306
2,Cn1cc(-c2ccc(C(F)(F)F)c(Cl)c2)c2ccc(S(=O)(=O)Nc3ncns3)cc21,3190
3,COc1cc(F)ccc1-c1cn(C)c2cc(S(=O)(=O)Nc3ncns3)ccc12,338
4,COc1cc(OC)cc(-c2cn(C)c3cc(S(=O)(=O)Nc4ncns4)ccc23)c1,5960
5,Cn1cc(-c2ccc(F)c(C#N)c2)c2ccc(S(=O)(=O)Nc3ncns3)cc21,1280
6,Cn1cc(-c2ccc(C#N)c(F)c2)c2ccc(S(=O)(=O)Nc3ncns3)cc21,3060
7,Cn1cc(-c2ccc(OC(F)(F)F)cc2)c2ccc(S(=O)(=O)Nc3ncns3)cc21,4670
8,Cn1cc(-c2cccc(OC(F)(F)F)c2)c2ccc(S(=O)(=O)Nc3ncns3)cc21,870
9,Cn1cc(-c2cccc(C#N)c2)c2ccc(S(=O)(=O)Nc3ncns3)cc21,2000
10,Cn1cc(-c2ccccc2)c2ccc(S(=O)(=O)Nc3ncns3)cc21,1550
11,COc1ccc(-c2cn(C)c3cc(S(=O)(=O)Nc4ncns4)ccc23)c(OC)c1,904
12,Cn1cc(-c2cccc3ncccc23)c2ccc(S(=O)(=O)Nc3ncns3)cc21,663
13,Cn1cc(-c2cccc(S(C)(=O)=O)c2)c2ccc(S(=O)(=O)Nc3ncns3)cc21,528
14,COc1ccc(-c2cn(C)c3cc(S(=O)(=O)Nc4ncns4)ccc23)c2ccccc12,2640
15,COc1ccc(-c2cn(C)c3cc(S(=O)(=O)Nc4ncns4)ccc23)c(Cl)c1,2310
16,Cc1noc(C)c1-c1cn(C)c2cc(S(=O)(=O)Nc3ncns3)ccc12,2620
17,Cn1cc(-c2ccc(Br)cc2C(F)(F)F)c2ccc(S(=O)(=O)Nc3ncns3)cc21,3530
18,Cn1cc(-c2ccccc2C(F)(F)F)c2ccc(S(=O)(=O)Nc3ncns3)cc21,6000
19,Cc1cnc(N)c(-c2cn(C)c3cc(S(=O)(=O)Nc4ncns4)ccc23)c1,5950
20,Cc1cc(C#N)ccc1-c1cn(C)c2cc(S(=O)(=O)Nc3ncns3)ccc12,2350
21,CN(C)c1cccc(-c2cn(C)c3cc(S(=O)(=O)Nc4ncns4)ccc23)c1,4200
22,Cn1cc(-c2cccc(C(F)(F)F)c2)c2ccc(S(=O)(=O)Nc3ncns3)cc21,3810
23,COc1ccc(-c2cn(C)c3cc(S(=O)(=O)Nc4ncns4)ccc23)cc1C(F)(F)F,4480
24,Cn1nccc1-c1cn(C)c2cc(S(=O)(=O)Nc3ncns3)ccc12,7140

# Reference: ChEMBL document CHEMBL3638977, “Heteroaryl sodium channel inhibitors” (2015)
